Assay [1] deals with BTK (Homo sapiens (Human), UniProt Q06187). Kind of assay: In Vitro BTK Kinase Assay: Btk-PolyGAT-LS Assay. It is filed as biochemical. The conditions noted are these: BTK enzyme 0.25 nM, ATP 10 μM, polyGAT 100 nM, 30 minutes incubation, TRF readout; read-out: IC50. The procedure, abridged:
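Human BTK activity was measured with final 10 μM ATP and 100 nM polyGAT substrate in pH 7.5 Tris buffer with 10 mM MgCl2, DTT, Triton X-100 and casein.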

The subject of assay [2] is CD69 expression on CD19+ B cells in human whole blood stimulated with anti-human IgD. As to the kind of experiment: In Vitro whole blood CD69 Assay. To be noted: Homo sapiens, B-cell, human heparinized whole blood, anti-human IgD stimulation overnight, percentage of CD19+ B cells expressing CD69, flow cytometry; read-out: IC50. It is filed as cell-based. On the technique in general: Flow cytometry measures light scatter and fluorescence of single cells or particles in a stream.

The structures appear in SMILES notation.

Sequence of BTK (Q06187 whole entry): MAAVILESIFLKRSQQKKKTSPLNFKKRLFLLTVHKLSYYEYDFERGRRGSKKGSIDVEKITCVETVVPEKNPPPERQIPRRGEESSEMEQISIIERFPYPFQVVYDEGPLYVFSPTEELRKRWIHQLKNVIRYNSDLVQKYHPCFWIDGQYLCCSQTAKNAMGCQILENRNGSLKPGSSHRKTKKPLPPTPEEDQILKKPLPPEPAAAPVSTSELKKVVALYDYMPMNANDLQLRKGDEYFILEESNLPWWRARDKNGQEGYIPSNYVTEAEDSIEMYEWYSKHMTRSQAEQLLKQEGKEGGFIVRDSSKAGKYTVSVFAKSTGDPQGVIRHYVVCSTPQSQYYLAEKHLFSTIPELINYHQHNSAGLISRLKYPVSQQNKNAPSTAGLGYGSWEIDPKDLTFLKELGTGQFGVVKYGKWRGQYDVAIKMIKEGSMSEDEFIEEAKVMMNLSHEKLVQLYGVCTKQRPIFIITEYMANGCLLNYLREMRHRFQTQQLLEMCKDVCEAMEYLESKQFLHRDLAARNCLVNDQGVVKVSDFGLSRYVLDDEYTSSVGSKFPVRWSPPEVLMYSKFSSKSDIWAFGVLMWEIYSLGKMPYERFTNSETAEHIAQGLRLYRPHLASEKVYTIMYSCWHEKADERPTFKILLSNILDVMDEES

As usually defined, the IC50 is the concentration at which inhibition is half-maximal. For `C=CS(=O)(=O)N1CCC[C@@H](Oc2nc(-c3cnn(C)c3)cn3nccc23)C1` [Example 5, (R)-6-(1-methyl-1H-pyrazol-4-yl)-4-((1-(vinylsulfonyl)piperidin-3-yl)oxy)pyrazolo[1,5-a]pyrazine], the figures for the concentration for half-maximal inhibition (IC50) in assay [1] and in assay [2] were < 1 nM and > 10000 nM, respectively.
Regarding `C=CS(=O)(=O)N1CCC[C@H](Oc2nc(-c3cnn(C)c3)cn3nccc23)C1` [Example 6, (S)-6-(1-methyl-1H-pyrazol-4-yl)-4-((1-(vinylsulfonyl)piperidin-3-yl)oxy)pyrazolo[1,5-a]pyrazine], the IC50 was 10 to 1000 nM in assay [1] and > 10000 nM in assay [2].
With `C#CC(=O)N1CCC[C@@H](Oc2nc(-c3cnn(C)c3)cn3nccc23)C1` [Example 7, (R)-1-(3-((6-(1-methyl-1H-pyrazol-4-yl)pyrazolo[1,5-a]pyrazin-4-yl)oxy)piperidin-1-yl)prop-2-yn-1-one], the IC50 is < 1 nM in assay [1] and 1000 to 10000 nM in assay [2].
In the case of `C=CC(=O)N1CC(Oc2nc(-c3cnn(C)c3)cn3nccc23)C1` [Example 9, 1-(3-((6-(1-methyl-1H-pyrazol-4-yl)pyrazolo[1,5-a]pyrazin-4-yl)oxy)azetidin-1-yl)prop-2-en-1-one], the IC50 in assay [1] is 10 to 1000 nM; in assay [2] it was > 10000 nM.
Consider `C/C=C\S(=O)(=O)N1CC(Oc2nc(-c3cnn(C)c3)cn3nccc23)C1` [Example 10, (Z)-6-(1-methyl-1H-pyrazol-4-yl)-4-((1-(prop-1-en-1-ylsulfonyl)azetidin-3-yl)oxy)pyrazolo[1,5-a]pyrazine], for which the results for the half-inhibitory concentration (IC50) in assay [1] and in assay [2] were 10 to 1000 nM and > 10000 nM, respectively.
The corresponding values for `C=CS(=O)(=O)N1CC[C@@H](Oc2nc(-c3cnn(C)c3)cn3nccc23)C1` [Example 12, (R)-6-(1-methyl-1H-pyrazol-4-yl)-4-((1-(vinylsulfonyl)pyrrolidin-3-yl)oxy)pyrazolo[1,5-a]pyrazine] are 1 to 10 nM and > 10000 nM.
With `C#CC(=O)N1CC[C@@H](Oc2nc(-c3cnn(C)c3)cn3nccc23)C1` [Example 13, (R)-1-(3-((6-(1-methyl-1H-pyrazol-4-yl)pyrazolo[1,5-a]pyrazin-4-yl)oxy)pyrrolidin-1-yl)prop-2-yn-1-one], the half-inhibitory concentration (IC50) in assay [1] is < 1 nM; in assay [2], < 1000 nM.
The corresponding values for `C=CC(=O)N1CCC[C@H](COc2nc(-c3cnn(C)c3)cn3nccc23)C1` [Example 14, (S)-1-(3-(((6-(1-methyl-1H-pyrazol-4-yl)pyrazolo[1,5-a]pyrazin-4-yl)oxy)methyl)piperidin-1-yl)prop-2-en-1-one] are 1 to 10 nM and > 10000 nM.
For `C=CS(=O)(=O)N1CCC[C@H](COc2nc(-c3cnn(C)c3)cn3nccc23)C1` [Example 15, (S)-6-(1-methyl-1H-pyrazol-4-yl)-4-((1-(vinylsulfonyl)piperidin-3-yl)methoxy)pyrazolo[1,5-a]pyrazine], in that order: 1 to 10 nM and 1000 to 10000 nM.
As to `C#CC(=O)N1CCC[C@H](COc2nc(-c3cnn(C)c3)cn3nccc23)C1` [Example 16, (S)-1-(3-(((6-(1-methyl-1H-pyrazol-4-yl)pyrazolo[1,5-a]pyrazin-4-yl)oxy)methyl)piperidin-1-yl)prop-2-yn-1-one], the IC50 was < 1 nM in assay [1] and < 1000 nM in assay [2].
The corresponding values for `C=CS(=O)(=O)N1CCC(CNc2nc(-c3cnn(C)c3)cn3nccc23)CC1` [Example 19, 6-(1-methyl-1H-pyrazol-4-yl)-N-((1-(vinylsulfonyl)piperidin-4-yl)methyl)pyrazolo[1,5-a]pyrazin-4-amine] are < 1 nM and < 1000 nM.
In the case of `C=CC(=O)NC1CCCN(c2nc(-c3cnn(C)c3)cn3nccc23)C1` (centres unmarked) [Example 20, N-[1-[6-(1-methylpyrazol-4-yl)pyrazolo[1,5-a]pyrazin-4-yl]-3-piperidyl]prop-2-enamide], the IC50 in assay [1] was 10 to 1000 nM; in assay [2], > 10000 nM.
As to `C#CC(=O)NC1CCCN(c2nc(-c3cnn(C)c3)cn3nccc23)C1` (centres unmarked) [Example 21, N-[1-[6-(1-methylpyrazol-4-yl)pyrazolo[1,5-a]pyrazin-4-yl]-3-piperidyl]prop-2-ynamide], the IC50 was in the range of 1 to 10 nM in assay [1] and 1000 to 10000 nM in assay [2].
For `Cn1cc(-c2cn3nccc3c(N3CCCC(NC(=O)/C=C/CCl)C3)n2)cn1` (centres unmarked) [Example 22, 4-chloro-N-[1-[6-(1-methylpyrazol-4-yl)pyrazolo[1,5-a]pyrazin-4-yl]-3-piperidyl]but-2-enamide], in that order: 1 to 10 nM and 1000 to 10000 nM.
For the compound `C#CC(=O)N(C)C1CCCN(c2nc(-c3cnn(C)c3)cc3nccn23)C1` (centres unmarked) [Example 23, N-methyl-N-[1-[7-(1-methylpyrazol-4-yl)imidazo[1,2-c]pyrimidin-5-yl]-3-piperidyl]prop-2-ynamide], the IC50 was 10 to 1000 nM in assay [1] and > 10000 nM in assay [2].
The corresponding values for `C#CC(=O)N(C)C1CCCN(c2nc(-c3cnn(C)c3)cn3nccc23)C1` (centres unmarked) [Example 24, N-methyl-N-[1-[6-(1-methylpyrazol-4-yl)pyrazolo[1,5-a]pyrazin-4-yl]-3-piperidyl]prop-2-ynamide] are 10 to 1000 nM and > 10000 nM.
Turning to `C#CC(=O)NCC1CCCN(c2nc(-c3cnn(C)c3)cn3nccc23)C1` (centres unmarked) [Example 25, N-((1-(6-(1-methyl-1H-pyrazol-4-yl)pyrazolo[1,5-a]pyrazin-4-yl)piperidin-3-yl)methyl)propiolamide], the IC50 was 1 to 10 nM in assay [1] and > 10000 nM in assay [2].
For the compound `C=CC(=O)NCC1CCCCN1c1nc(-c2cnn(C)c2)cn2nccc12` (centres unmarked) [Example 27, N-[[1-[6-(1-methylpyrazol-4-yl)pyrazolo[1,5-a]pyrazin-4-yl]-2-piperidyl]methyl]prop-2-enamide], the values for the IC50 in assay [1] and in assay [2] were 10 to 1000 nM and 1000 to 10000 nM, respectively.
For the compound `C=CS(=O)(=O)N1CCC[C@@H](Oc2nc(-c3cnn(C)c3)cn3nccc23)CC1` [Example 28, (R)-6-(1-methyl-1H-pyrazol-4-yl)-4-((1-(vinylsulfonyl)azepan-4-yl)oxy)pyrazolo[1,5-a]pyrazine], the half-maximal inhibitory concentration (IC50) is < 1 nM in assay [1] and < 1000 nM in assay [2].
For `C#CC(=O)N1CCC[C@@H](Oc2nc(-c3cnn(C)c3)cn3nccc23)CC1` [Example 30, (R)-1-(4-((6-(1-methyl-1H-pyrazol-4-yl)pyrazolo[1,5-a]pyrazin-4-yl)oxy)azepan-1-yl)prop-2-yn-1-one], the concentration for half-maximal inhibition (IC50) in assay [1] is < 1 nM; in assay [2], < 1000 nM.
For `C#CC(=O)N1CCC[C@H](Oc2nc(-c3cnn(C)c3)cn3nccc23)CC1` [Example 31, (S)-1-(4-((6-(1-methyl-1H-pyrazol-4-yl)pyrazolo[1,5-a]pyrazin-4-yl)oxy)azepan-1-yl)prop-2-yn-1-one], in that order: < 1 nM and 1000 to 10000 nM.
Take `C=CS(=O)(=O)N1CCC[C@H](Oc2nc(-c3cnn(C)c3)cn3nccc23)CC1` [Example 33, (S)-6-(1-methyl-1H-pyrazol-4-yl)-4-((1-(vinylsulfonyl)azepan-4-yl)oxy)pyrazolo[1,5-a]pyrazine]: the figures for the IC50 in assay [1] and in assay [2] were 1 to 10 nM and 1000 to 10000 nM, respectively.
With `C#CC(=O)N1CC[C@@H](Oc2nc(-c3cnn(C)c3)cc3nccn23)C1` [Example 39, (R)-1-(3-((7-(1-methyl-1H-pyrazol-4-yl)imidazo[1,2-c]pyrimidin-5-yl)oxy)pyrrolidin-1-yl)prop-2-yn-1-one], the IC50 lay in the range of 10 to 1000 nM in assay [1] and 1000 to 10000 nM in assay [2].
For `C=CC(=O)Nc1cccc(Oc2nc(-c3cnn(C)c3)cc3nccn23)c1` [Example 43], in that order: 1 to 10 nM and < 1000 nM.
The corresponding values for `C=CC(=O)N1CCOC[C@@H](Oc2nc(-c3cnn(C)c3)cn3nccc23)C1` [Example 54, (S)-1-(6-((6-(1-methyl-1H-pyrazol-4-yl)pyrazolo[1,5-a]pyrazin-4-yl)oxy)-1,4-oxazepan-4-yl)prop-2-en-1-one] are 1 to 10 nM and > 10000 nM.
For `C=CC(=O)N1CCCC[C@H](Oc2nc(-c3cnn(C)c3)cn3nccc23)C1` [Example 55, (S)-1-(3-((6-(1-methyl-1H-pyrazol-4-yl)pyrazolo[1,5-a]pyrazin-4-yl)oxy)azepan-1-yl)prop-2-en-1-one], in that order: 10 to 1000 nM and > 10000 nM.
For `C=CC(=O)N1CCCC[C@@H](Oc2nc(-c3cnn(C)c3)cn3nccc23)C1` [Example 56, 1-[(3R)-3-[6-(1-methylpyrazol-4-yl)pyrazolo[1,5-a]pyrazin-4-yl]oxyazepan-1-yl]prop-2-en-1-one], the IC50 is 1 to 10 nM in assay [1] and > 10000 nM in assay [2].
Take `C=CC(=O)N1CCCC(Oc2nc(-c3cnn(C)c3)cn3ncnc23)CC1` (centres unmarked) [Example 57, 1-(4-((6-(1-methyl-1H-pyrazol-4-yl)-[1,2,4]triazolo[1,5-a]pyrazin-8-yl)oxy)azepan-1-yl)prop-2-en-1-one]: the figures for the 50% inhibitory concentration (IC50) in assay [1] and in assay [2] were 1 to 10 nM and 1000 to 10000 nM, respectively.
For `C=CC(=O)N1CCOC[C@H](Oc2nc(-c3cnn(C)c3)cn3nccc23)C1` [Example 58, (R)-1-(6-((6-(1-methyl-1H-pyrazol-4-yl)pyrazolo[1,5-a]pyrazin-4-yl)oxy)-1,4-oxazepan-4-yl)prop-2-en-1-one], in that order: 10 to 1000 nM and > 10000 nM.
For `C=CC(=O)N1CCC[C@@H](Oc2nc(-c3cnn(C)c3)cn3ncc(C#N)c23)CC1` [Example 59, (R)-4-((1-acryloylazepan-4-yl)oxy)-6-(1-methyl-1H-pyrazol-4-yl)pyrazolo[1,5-a]pyrazine-3-carbonitrile], in that order: < 1 nM and < 1000 nM.
For `C=CC(=O)N(C)[C@H]1C[C@H](Oc2nc(-c3cnn(C)c3)cn3ncc(C)c23)C1` [Example 60, N-methyl-N-((trans)-3-((3-methyl-6-(1-methyl-1H-pyrazol-4-yl)pyrazolo[1,5-a]pyrazin-4-yl)oxy)cyclobutyl)acrylamide], in that order: < 1 nM and > 10000 nM.

The record behind these values is patent US20240083900A1, “PYRAZOLO[1,5-A]PYRAZINE DERIVATIVES AS BTK INHIBITORS” (BIOGEN MA INC., priority 2020, published 2024).
